Results as given in patent US12173088B2, “Anti-microbial peptides” (priority 2018, dated 2024).
Converted amounts (≈) assume the structure as drawn. Peptide text beside a SMILES is read from it.

Columns and labels:
[1] = tested on: S. aureus USA300 biofilms; settings: 25 μM; 24 hour formed static biofilms
Method: The antibiofilm activity of the peptide against 24 hours established biofilms was evaluated. In short, S. aureus USA300 (10^5 CFU/mL) was made from exponential phase bacteria in TSB media and 200 μL was distributed to each well of the microtiter plate (Corning Costar Cat No. 3595). The plates were incubated at 37° C. for 24 hours to form biofilm. Culture treated with water served as a positive control while media without bacterial inoculation served as the negative control. Media was then pipetted out and the attached biofilms were washed with 1×PBS to remove the planktonic bacteria. Each well of the plate was then filled with 20 μL of 10× peptide solution and 180 μL of fresh TSB media and the plates were further incubated at 37° C. for 24 hours. Media was then pipetted out and the wells were washed with 1×PBS to remove planktonic cells. Live cells in the biofilms were then quantitated using XTT [2,3-bis(2-methyloxy-4-nitro-5-sulfophenyl)-2H-tertazolium-5-carboxanilide] assay by following the manufacturer's instructions with modifications. 180 μL of fresh TSB and 20 μL of XTT solution was added to each well and the plates were again incubated at 37° C. for 2 hours. Absorbance at 450 nm (only media with XTT containing wells served as the blank) was obtained using a ChroMate® microtiter plate reader. […]

E. coli ATCC 25922 = format: cell-based, Escherichia coli; settings: ATCC 25922
Outline: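 Peptides, serially diluted two-fold, were incubated overnight at 37 °C with E. coli ATCC 25922 from log-phase cultures adjusted to OD600 0.001. Turbidity at 630 nm served as the read-out in this broth microdilution format.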

in vivo = test: in vivo
Method: The efficacy of the two peptides was also investigated in non-neutropenic mice against S. aureus USA300. A higher bacterial inoculum at 2×10^8 CFU per mouse was used. […] To evaluate the peptide pharmacokinetics (Chhonker, et al. (2018) Biomed. Chromatogr. e4389), the plasma clearance rate of horine after intravenous injection of 10 mg/kg into BALB/c mice was followed.

K. pneumoniae ATCC 13883 = format: cell-based, Klebsiella pneumoniae; settings: ATCC 13883
Outline: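 Broth microdilution in tryptic soy broth: log-phase cultures (OD600 ≈0.5) diluted to OD600 0.001, given two-fold peptide dilutions, incubated overnight at 37° C. Growth read at 630 nm.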

[2] = tested on: Klebsiella pneumoniae clinical strains; test: microbe, parasite or virus in culture; settings: clinical strains
[3] = tested on: clinical strains of methicillin-resistant and susceptible S. aureus; test: microbe, parasite or virus in culture; settings: Staphylococcus aureus

With `CC(C)C[C@H](NC(=O)[C@H](CC(C)C)NC(=O)[C@H](CCCCN)NC(=O)[C@H](CC(C)C)NC(=O)CNC(=O)[C@H](CC(C)C)NC(=O)[C@H](CO)NC(=O)[C@H](CC(C)C)NC(=O)[C@H](CC(C)C)NC(=O)[C@H](CC(C)C)NC(=O)[C@H](CCCCN)NC(=O)[C@H](CC(C)C)NC(=O)CN)C(N)=O` [DFT561, GLKLLLSLGLKLL] (H-GLKLLLSLGLKLL-NH2; N-terminus and C-terminus assumed) the “S. aureus killed in biofilms” value [1] was 60% and the “MIC EC (E. coli ATCC 25922)” value (E. coli ATCC 25922) was over 25 µM.

With `CC(C)C[C@H](NC(=O)[C@H](Cc1c[nH]c2ccccc12)NC(=O)[C@H](Cc1c[nH]c2ccccc12)NC(=O)[C@@H](N)Cc1c[nH]c2ccccc12)C(=O)N[C@@H](CCCNC(=N)N)C(=O)N[C@@H](CCCNC(=N)N)C(=O)N[C@@H](CCCNC(=N)N)C(=O)N[C@@H](Cc1c[nH]c2ccccc12)C(N)=O` [Horine, WWWLRRRW] (H-WWWLRRRW-NH2; N-terminus and C-terminus assumed) the “Time to become undetectable in plasma” value (in vivo; 10 mg/kg i.v.) was at most 1 h, the level at 5 min (in vivo; BALB/c, mouse, plasma, iv, 10 mg/kg) was 266 ng/mL and the “MIC K. pneumonia ATCC 13883” value (K. pneumoniae ATCC 13883) was over 25 µM. The MIC [2] was over 64 µM.

Work on `CN[C@H](CC(C)C)C(=O)N[C@H]1C(=O)N[C@@H](CC(N)=O)C(=O)N[C@H]2C(=O)N[C@H]3C(=O)N[C@H](C(=O)N[C@H](C(=O)O)c4cc(O)cc(O)c4-c4cc3ccc4O)[C@H](O)c3ccc(c(Cl)c3)Oc3cc2cc(c3O[C@@H]2O[C@H](CO)[C@@H](O)[C@H](O)[C@H]2O[C@H]2C[C@](C)(N)[C@H](O)[C@H](C)O2)Oc2ccc(cc2Cl)[C@H]1O` [Vancomycin] yielded an MIC ([3]; MSSA, strain B243-16 MSSA) of 0.5 µM (≈ 0.725 µg/mL), an MIC ([3]; MSSA, strain B254-16 MSSA) of 0.5 µM (≈ 0.725 µg/mL) and an MIC ([3]; MSSA, strain B255-16 MSSA) of 1 µM (≈ 1.45 µg/mL). It also gave an MIC ([3]; MSSA, strain B262-16 MSSA) of 0.5 µM (≈ 0.725 µg/mL), an MIC ([3]; MSSA, strain B269-16 MSSA) of 1 µM (≈ 1.45 µg/mL) and an MIC ([3]; NEWMAN, strain Newman) of 1 µM (≈ 1.45 µg/mL). The MIC ([3]; USA200, strain USA200) was 0.5 µM (≈ 0.725 µg/mL), the MIC ([3]; USA300, strain USA300) was 0.5 µM (≈ 0.725 µg/mL) and the MIC ([3]; USA400, strain USA400) was 1 µM (≈ 1.45 µg/mL). The MIC ([3]; strain M106-16) was 1 µM (≈ 1.45 µg/mL), the MIC ([3]; strain M108-16) was 1 µM (≈ 1.45 µg/mL) and the MIC ([3]; strain M109-16) was 0.5 µM (≈ 0.725 µg/mL). The MIC ([3]; strain M111-16) was 0.5 µM (≈ 0.725 µg/mL), the MIC ([3]; strain M112-16) was 0.5 µM (≈ 0.725 µg/mL) and the MIC ([3]; strain M113-16) was 1 µM (≈ 1.45 µg/mL). It also gave an MIC ([3]; strain M114-16) of 1 µM (≈ 1.45 µg/mL), an MIC ([3]; strain M116-16) of 0.5 µM (≈ 0.725 µg/mL) and an MIC ([3]; strain M117-16) of 0.5 µM (≈ 0.725 µg/mL). The MIC ([3]; strain M118-16) was 1 µM (≈ 1.45 µg/mL), the MIC ([3]; strain M119-16) was 0.5 µM (≈ 0.725 µg/mL) and the MIC ([3]; strain M120-16) was 0.5 µM (≈ 0.725 µg/mL). For the same molecule, the MIC ([3]; strain M121-16) was 1 µM (≈ 1.45 µg/mL), the MIC ([3]; strain M122-16) was 1 µM (≈ 1.45 µg/mL) and the MIC ([3]; strain M123-16) was 0.5 µM (≈ 0.725 µg/mL). For the same molecule, the MIC ([3]; strain M126-16) was 0.5 µM (≈ 0.725 µg/mL), the MIC ([3]; strain M127-16) was 0.5 µM (≈ 0.725 µg/mL) and the MIC ([3]; strain M128-16) was 1 µM (≈ 1.45 µg/mL). The MIC ([3]; strain M129-16) was 0.5 µM (≈ 0.725 µg/mL), the MIC ([3]; strain M130-16) was 0.5 µM (≈ 0.725 µg/mL) and the MIC ([3]; strain UAMS-1) was 2 µM (≈ 2.9 µg/mL). For the same molecule, the MIC ([3]; strain mu50) was 2 µM (≈ 2.9 µg/mL).
